Reference: patent publication EP0778023B1, “Product comprising rapamycin or particular derivatives and an NMDA or AMPA antagonist for use for the treatment of epilepsy or Huntington's Disease, and the use of rapamycin or particular derivatives for the manufacture of a medicament for the treatment of epilepsy or Huntington's Disease” (Wyeth, priority 1995, dated 1997)

How the values were obtained:
[1] = tested on: rat hippocampal and cortical cultures (hippocampal neurons); test: glutamate induced toxicity in hippocampal cultures, count of live neurons; format: cell-based; conditions: 30 µM glutamate
Description: (§1) Briefly, rat hippocampal and cortical cultures were prepared according to the method of Furshpan and Potter with some modifications. [Neuron 3:199 (1989)]. Brains were removed from newborn Long Evans pups anesthetized with an injection of 0.1 ml of 20% chloral hydrate. The hippocampi were dissected out and separated from the rest of the cortex. Both tissues were enzymatically digested in 5 ml Earle's Balanced Salt Solution (EBSS) containing 20 u/ml papain, 1 mM L-cysteine, and 0.5 mM EDTA for 30 minutes at 37°C with gentle rocking. The hippocampi and cortical tissues were then washed once with EBSS and the digestion was stopped by incubating at 37°C for 30 minutes with 3-5 mis of inhibitor solution containing 1 mg/ml ovomucoid and 1 mg/ml albumin in EBSS. The digested hippocampi and cortical tissues were washed twice with DME without L-glutamine with 4.5 g/L dextrose before being triturated in 2 ml of DME supplemented with 5% fetal calf serum, 5% rat serum, 50 u/ml penicillin, 0.05 mg/ml streptomycin and MlTO+ serum extender [a medium supplement from Collaborative Biomedical Products] (10% DME). After 50 triturations, undissociated tissue was allowed to settle and the dissociated cell suspension was removed. A fresh 2 ml of 10% DME was added to the remaining tissue and the trituration was repeated. The two cell suspension aliquots were pooled and the cell density was determined with a hemacytometer.
(§2) 30,000 hippocampal cells in 150 µL were plated per well in 96-well plates and incubated at 37°C in 5% CO2. Cortical cells were plated at a density of 500,000 cells per well in 24-well plates. When glia cells were confluent (after approximately 3 days), 4-10 µM cytosine β-D-arabinofuranoside was added to each well to prevent further proliferation. One week after plating, the medium was removed and replaced with DME supplemented with 2.5% fetal calf serum, 2.5% rat serum, 50 u/ml penicillin, 0.05 mg/ml streptomycin, MITO+, 1 mM kynurenate and 10 mM MgCl2 (5% DME + KM). Kynurenate is a nonspecific blocker of glutamate receptors and elevated levels of magnesium block calcium and sodium influx through NMDA receptor channels. The addition of KM prevents neurotoxicity that occurs with glutamate found in serum, and allows neurons to be maintained in culture for up to several months. The cells were fed weekly by exchanging half the medium with fresh 5% DME + KM.
The compound to be evaluated was dissolved in DMSO to make 10 mM stock solutions and stored in aliquots at -80°C. Just before each procedure was carried out, aliquots of the stock solutions were thawed and diluted in DME or Hanks' Balanced Salt Solution (HBSS) containing 44 mM sodium bicarbonate, 10 mM glucose, and 30 µM glutamate to obtain test concentrations from 1 nM to 10 µM.
After 4-12 weeks in culture, hippocampal cells were washed three times and fed with test compound in HBSS, or serum free DME (SF DME) and 30 to 150 µM glutamate. At least three wells in every test procedure were treated with each drug concentration. 30 µM Glutamate kills 70-80% of the neurons in younger cultures, and more in older cultures. The toxicity induced by 30 µM glutamate was blocked by 1 mM kynurenate + 10 mM MgCl2 (KM).
Following overnight incubation at 37°C, the number of live hippocampal neurons remaining in five fields, representing the north, south, east, and west extremes and the center of each well, were counted. Each field was visualized through a 10x objective with a 15x eyepiece and was approximately 1.54 mm^2 in area. Conditions were generally done in triplicate. The mean number of neurons per well and the standard deviation for each condition were calculated. The mean number of neurons remaining in the control 30 µM glutamate condition reflects those that were not sensitive to glutamate toxicity.

[2] = tested on: Cortical neurons; test: ischemia induced neurotoxicity in cortical cultures with NMDA and AMPA inhibitors, LDH activity; format: cell-based, rat; conditions: 1 week old cortical cell cultures
Description: as §1, §2
Cortical neurons were washed six times with DME without glucose that has been deoxygenated by bubbling the medium with 95% N2/5% CO2 for at least 10 minutes, to induce an ischemic state that will cause neuronal cell death that can be observed by measuring lactate dehydrogenase levels, as the amount of LDH activity in each well is directly correlated with the number of dead cells. 100 µM [2-(8,9-Dioxo-2,6-diazabicyclo[5.2.0]non-1(7)-en-2-yl)-ethyl]-phosphonic acid (disclosed in U.S. Patent 5,168,103 and 10 µM YM90K were added to certain wells to block NMDA and AMPA glutamate receptors, respectively. To test wells, 1 µM of the compound of Example 1 was added. Control wells were washed with normal DME with glucose and 100 µM [2-(8,9-dioxo-2,6-diazabicyclo[5.2.0]non-1(7)-en-2-yl)ethyl]phosphonic acid. 5 µL samples were taken from each well at different time points following ischemia and the LDH activity in those samples was determined by adding 250 µL of 2 mg NADH/25 mL phosphate buffer to each sample. After incubating for 20-30 minutes, 10 µL of 22.7 mM pyruvate was added and the optical density (OD) at 340 nm read. The change in optical density with time (mOD/min) reflects the amount of LDH in the sample. Higher optical density changes means more LDH activity indicating more cell death. Samples were taken from 4-8 wells per condition and the average and standard deviation for each condition and time point determined.

[3] = 2 nM test compound, HBSS, overnight incubation
[4] = 20 nM test compound, HBSS, overnight incubation
[5] = 200 nM test compound, HBSS, overnight incubation
[6] = Time 8 hours, test compound administered with the NMDA and AMPA inhibitors
[7] = Time 13 hours, with the NMDA and AMPA inhibitors
[8] = Time 24 hours, with the NMDA and AMPA inhibitors
[9] = Time 30 hours, with the NMDA and AMPA inhibitors

## O=C(O)c1cc(O)c2ccccc2n1 [Kynurenate, kynurenate, reference compound]
[1]; 1 mM, HBSS, overnight incubation (second table)
  No. Neurons Alive: 202
[1]; 1 mM, SF DME, overnight incubation (first table)
  No. Neurons Alive: 82

## CO[C@H]1C[C@@H]2CC[C@@H](C)[C@@](O)(O2)C(=O)C(=O)N2CCCC[C@H]2C(=O)O[C@H]([C@H](C)C[C@@H]2CC[C@@H](O)[C@H](OC)C2)CC(=O)[C@H](C)/C=C(\C)[C@@H](O)[C@@H](OC)C(=O)[C@H](C)C[C@H](C)/C=C/C=C/C=C/1C [Example 1, Rapamycin]
[1]; [3]
  No. Neurons Alive: 63
[1]; 10nM test compound, SF DME, overnight incubation, mean per well (five fields)
  No. Neurons Alive: 114
[1]; [4]
  No. Neurons Alive: 71
[1]; 100nM test compound, SF DME, overnight incubation
  No. Neurons Alive: 92
[1]; [5]
  No. Neurons Alive: 229
[1]; 1µM test compound, SF DME, overnight incubation
  No. Neurons Alive: 46
[1]; 10µM test compound, SF DME, overnight incubation
  No. Neurons Alive: 47
[2]; [6]
  LDH Activity: 1.04 mOD/min
[2]; [7]
  LDH Activity: 3.08 mOD/min
[2]; [8]
  LDH Activity: 9.00 mOD/min
[2]; [9]
  LDH Activity: 14.02 mOD/min

## Rapamycin-O-benzyl-27-oxime [Example 5]
[1]; [3]
  No. Neurons Alive: 131
[1]; [4]
  No. Neurons Alive: 96
[1]; [5]
  No. Neurons Alive: 135
[2]; [6]
  LDH Activity: 0.74 mOD/min
[2]; [7]
  LDH Activity: 1.65 mOD/min
[2]; [8]
  LDH Activity: 4.82 mOD/min
[2]; [9]
  LDH Activity: 8.83 mOD/min

## Rapamycin 1,3, Diels Alder adduct with Phenyltriazolinedione [Example 2]
[1]; [3]
  No. Neurons Alive: 110
[1]; [4]
  No. Neurons Alive: 180
[1]; [5]
  No. Neurons Alive: 127
[2]; [6]
  LDH Activity: 1.08 mOD/min
[2]; [7]
  LDH Activity: 2.31 mOD/min
[2]; [8]
  LDH Activity: 7.69 mOD/min
[2]; [9]
  LDH Activity: 12.43 mOD/min

## CO[C@H]1C[C@@H]2CC[C@@H](C)[C@@](O)(O2)C(=O)C(=O)N2CCCC[C@H]2C(=O)O[C@H]([C@H](C)C[C@@H]2CC[C@@H](OS(=O)(=O)c3ccc(N=Nc4ccc(N(C)C)cc4)cc3)[C@H](OC)C2)CC(=O)[C@H](C)/C=C(\C)[C@@H](O)[C@@H](OC)C(=O)[C@H](C)C[C@H](C)/C=C/C=C/C=C/1C [Example 3, Rapamycin 42-ester with 4-[[4-(dimethylamino)phenyl]azo]benzenesulfonic acid]
[1]; [3]
  No. Neurons Alive: 98
[1]; [4]
  No. Neurons Alive: 285
[1]; [5]
  No. Neurons Alive: 241
[2]; [6]
  LDH Activity: 0.84 mOD/min
[2]; [7]
  LDH Activity: 2.36 mOD/min
[2]; [8]
  LDH Activity: 7.03 mOD/min
[2]; [9]
  LDH Activity: 11.25 mOD/min

## Rapamycin 1,3-Diels Alder adduct with methyltriazolinedione [Example 4]
[1]; [3]
  No. Neurons Alive: 117
[1]; [4]
  No. Neurons Alive: 130
[1]; [5]
  No. Neurons Alive: 157
[2]; [6]
  LDH Activity: 0.91 mOD/min
[2]; [7]
  LDH Activity: 2.54 mOD/min
[2]; [8]
  LDH Activity: 8.21 mOD/min
[2]; [9]
  LDH Activity: 13.31 mOD/min
